Assay results: patent US20090030039A1, “Piperidine Derivatives as Cxcr3 Receptor Antagonists” (priority 2006, published 2009)

Target: T1, human CXCR3 (Homo sapiens, UniProt P49682)
T1 construct: expressed in transfected cells; host or cells: CHO cells (membrane preparation)
T1 sequence (P49682 1-368): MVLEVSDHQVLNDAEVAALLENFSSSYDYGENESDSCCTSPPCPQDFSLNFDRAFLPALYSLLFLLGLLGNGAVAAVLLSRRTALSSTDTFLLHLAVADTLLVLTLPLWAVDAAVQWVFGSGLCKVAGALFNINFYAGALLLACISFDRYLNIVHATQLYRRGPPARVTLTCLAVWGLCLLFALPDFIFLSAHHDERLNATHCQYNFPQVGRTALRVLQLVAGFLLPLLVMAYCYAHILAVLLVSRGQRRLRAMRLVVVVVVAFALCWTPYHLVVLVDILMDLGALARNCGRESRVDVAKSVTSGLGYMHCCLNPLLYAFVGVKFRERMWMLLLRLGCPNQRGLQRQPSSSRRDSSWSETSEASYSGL
Assay: [35S]GTPγS exchange assay, CXCR3 receptor inhibition (hI-TAC-induced GTPγS-binding)
Assay type: biochemical
Conditions: -log IC50 (molar) inhibiting 50% of specific I-TAC-induced GTPγS-binding; membranes of human CXCR3-transfected CHO cells
Experimental: CXCR3 Receptor Inhibition was Examined in a [^35S]GTPγS Exchange Assay
The exchange of guanosine 5′-[^35S]triphosphate was measured on membranes of human CXCR3-transfected CHO cells. [^35S]GTPγS exchange assays were performed in 96-well plates with 10 μg of membrane protein/well using basic flashplates (Perkin Elmer). Compounds were dissolved in DMSO and diluted with incubation buffer to yield required concentrations with 9% DMSO. Incubation buffer is composed of 20 mM HEPES, 100 mM NaCl, 3 μM GDP and 1 mM MgCl2, pH 7.4. […] Compound, membranes, hI-TAC (interferon-inducible T-cell alpha chemoattractant) and [^35S]GTPγS were added in a total volume of 200 μl. First, 20 μl of the appropriate compound dilution and 140 μl membranes from CXCR3-CHO cells were dissolved in membrane incubation buffer and pre-incubated for 30 minutes at 30° C. Then, 20 μl of hI-TAC dissolved at 30 nM in incubation buffer was added to the membranes and the mixture containing 1% of DMSO was incubated for another 30 minutes at 30° C. […] After 1 minute shaking and 30 minutes incubation at 30° C., flashplates were centrifuged for 5 minutes at 2500 rpm at room temperature. Flashplate bound radioactivity was determined by liquid scintillation counting. Basal GTPγS-binding was measured in 8 wells with membranes incubated in the same volume with 1% DMSO, without I-TAC. Maximal GTPγS-binding was measured in 8 wells with membranes incubated with 1% DMSO and 3 nM I-TAC. […] IC50 values were calculated using non-linear regression in Graphpad Prism.

Structure (SMILES)	pIC50
O=C1CCC(c2cccc(C(=O)NCCCO)c2)(C2CCN(Cc3ccc(Br)cc3)CC2)C(=O)N1 (centres unmarked) [Compound 91]	5.9
O=C1CCC(c2ccccn2)(C2CCN(Cc3ccc(Br)cc3)CC2)C(=O)N1 (centres unmarked) [Compound 30]	6.3
NC(=O)c1cccc(C2(C3CCN(Cc4ccc(Br)cc4)CC3)CCC(=O)NC2=O)c1 (centres unmarked) [Compound 33]	5.5
CNC(=O)c1cccc(C2(C3CCN(Cc4ccc(Br)cc4)CC3)CCC(=O)NC2=O)c1 (centres unmarked) [Compound 32]	5.5
CC(C)N1C(=O)CCC(c2ccccc2)(C2CCN(Cc3ccc(Br)cc3)CC2)C1=O (centres unmarked) [Compound 127]	5.3
COCCN1C(=O)CCC(c2ccccc2)(C2CCN(Cc3ccc(Br)cc3)CC2)C1=O (centres unmarked) [Compound 129]	5.7
O=C1CCC(c2cccc(C(=O)O)c2)(C2CCN(Cc3ccc(Br)cc3)CC2)C(=O)N1 (centres unmarked) [Compound 23]	6.2

Same assay, conditions: -log IC50 (molar) inhibiting 50% of specific I-TAC-induced GTPγS-binding; membranes of human CXCR3-transfected CHO cells; read-out: pIC50 (converted)

Structure (SMILES)	IC50
CC(c1ccc(Br)cc1)N1CCC(C2(c3cccc(C(=O)O)c3)CCC(=O)NC2=O)CC1 (centres unmarked) [Compound 165]	0.794 µM
O=C1CCC(c2ccccn2)(C2CCN(Cc3ccc(Cl)c(F)c3)CC2)C(=O)N1 (centres unmarked) [Compound 29]	0.794 µM
O=C1CCC(c2cccc(Cl)c2)(C2CCN(Cc3ccc(Br)cc3F)CC2)C(=O)N1 (centres unmarked) [Compound 95]	1.58 µM
O=C1CCC(c2ccc(F)cc2)(C2CCN(Cc3ccc(Cl)c(F)c3)CC2)C(=O)N1 (centres unmarked) [Compound 26]	0.2 µM
COc1cc(F)ccc1CN1CCC(C2(c3ccccc3)CCC(=O)NC2=O)CC1 (centres unmarked) [Compound 46]	3.98 µM
O=C1CCC(c2ccccc2)(C2CCN(Cc3ccc(C(F)(F)F)cc3)CC2)CN1 (centres unmarked) [Compound 146]	2.51 µM
O=C1CCC(c2ccccc2)(C2CCN(Cc3ccc(OCc4ccc(Cl)cc4)cc3)CC2)CN1 (centres unmarked) [Compound 148]	6.31 µM
Cc1cccc(C2(C3CCN(Cc4ccc(Cl)c(F)c4)CC3)CCC(=O)NC2=O)c1 (centres unmarked) [Compound 78]	0.794 µM
CC1CC(=O)NC(=O)C1(c1ccccc1)C1CCN(Cc2ccc(Br)cc2)CC1 (centres unmarked) [Compound 209]	0.501 µM
O=C1CCC(c2cccc(C(=O)O)c2)(C2CCN(Cc3cc4cc(Br)ccc4o3)CC2)C(=O)N1 (centres unmarked) [Compound 160]	0.316 µM
CC(c1ccc(Br)cc1)N1CCC(C2(c3ccccc3)CCCNC2=O)CC1 (centres unmarked) [Compound 11]	0.794 µM
Cc1cccc(C2(C3CCN(Cc4ccc(Cl)c(Cl)c4)CC3)CCC(=O)NC2=O)c1 (centres unmarked) [Compound 82]	3.16 µM
Cc1cccc(C2(C3CCN(Cc4ccc(Cl)cc4)CC3)CCC(=O)NC2=O)c1 (centres unmarked) [Compound 64]	2 µM
O=C1CCC(c2cccc(C(=O)O)c2)(C2CCN(Cc3ccc(Cl)cc3Cl)CC2)C(=O)N1 (centres unmarked) [Compound 73]	0.501 µM
Cc1cc(CN2CCC(C3(c4ccc(F)cc4)CCC(=O)NC3)CC2)ccc1Br (centres unmarked) [Compound 145]	0.794 µM
O=C1CCC(c2cccc(C(=O)O)c2)(C2CCN(Cc3ccc(Cl)c(F)c3)CC2)C(=O)N1 (centres unmarked) [Compound 22]	0.251 µM
O=C1CCC(c2ccccc2)(N2CCN(Cc3ccc(Br)cc3)CC2)C(=O)N1 (centres unmarked) [Compound 7]	0.251 µM
O=C1CCC(c2ccc(F)cc2)(C2CCN(Cc3ccc(Cl)cc3)CC2)C(=O)N1 (centres unmarked) [Compound 68]	0.794 µM
CC(c1ccc(Br)cc1)N1CCC(C2(c3ccc(F)cc3)CCC(=O)NC2=O)CC1 (centres unmarked) [Compound 3]	0.2 µM
O=C1CCC(c2ccc(F)cc2)(C2CCN(Cc3ccc(F)c(Cl)c3)CC2)C(=O)N1 (centres unmarked) [Compound 56]	5.01 µM
O=C1CCC(c2ccc(F)cc2)(C2CCN(Cc3ccc(OC(F)F)cc3)CC2)CN1 (centres unmarked) [Compound 147]	3.98 µM
O=C1CCC(c2ccc(F)cc2)(C2CCN(Cc3cc(F)c(F)cc3F)CC2)C(=O)N1 (centres unmarked) [Compound 156]	0.794 µM
O=C1CCC(c2ccc(F)cc2)(C2CCN(Cc3ccc(OC(F)(F)F)cc3)CC2)C(=O)N1 (centres unmarked) [Compound 113]	5.01 µM
O=C1CCC(c2ccccc2)(C2CCN(Cc3ccc(C(F)(F)F)cc3)CC2)C(=O)N1 (centres unmarked) [Compound 102]	3.98 µM
CN1C(=O)CCC(c2ccccc2)(C2CCN(Cc3ccc(Cl)cc3)CC2)C1=O (centres unmarked) [Compound 120]	1.58 µM
O=C1CCC(c2ccccc2)(C2CCN(Cc3ccc(F)c(F)c3F)CC2)C(=O)N1 (centres unmarked) [Compound 50]	1.58 µM
O=C1CCC(c2ccncc2)(C2CCN(Cc3ccc(Cl)c(Cl)c3)CC2)C(=O)N1 (centres unmarked) [Compound 169]	1 µM
O=C1CCC(c2ccc(F)cc2)(C2CCN(Cc3ccc(F)c(F)c3F)CC2)C(=O)N1 (centres unmarked) [Compound 54]	1.26 µM

Structure (SMILES)	IC50
O=C1CCC(c2cccc(Cl)c2)(C2CCN(Cc3ccc(Cl)c(Cl)c3)CC2)C(=O)N1 (centres unmarked) [Compound 81]	3.98 µM
CN1C(=O)CCC(c2ccccc2)(C2CCN(Cc3ccc(C(F)(F)F)cc3)CC2)C1=O (centres unmarked) [Compound 131]	3.98 µM
CN1C(=O)CCC(c2ccccc2)(C2CCN(Cc3ccc(Cl)c(Cl)c3)CC2)C1=O (centres unmarked) [Compound 122]	5.01 µM
COc1cc(CN2CCC(C3(c4ccccc4)CCC(=O)NC3=O)CC2)ccc1F (centres unmarked) [Compound 60]	3.16 µM
CC(=O)Nc1ccccc1C1(C2CCN(Cc3ccc(Br)cc3)CC2)CCC(=O)NC1=O (centres unmarked) [Compound 24]	1 µM
O=C1CCC(c2ccc(F)cc2)(C2CCN(Cc3ccc(Br)cc3)CC2)C(=O)N1 (centres unmarked) [Compound 92]	1 µM
O=C1CCC(c2ccc(F)cc2)(C2CCN(Cc3ccc(Cl)cc3)CC2)CN1 (centres unmarked) [Compound 136]	0.794 µM
O=C1CCC(c2ccccc2)(C2CCN(Cc3ccc(Cl)cc3Cl)CC2)C(=O)N1 (centres unmarked) [Compound 70]	2.51 µM
O=C1CCC(c2cccc(C(=O)O)c2)(C2CCN(Cc3ccc(Br)c(F)c3)CC2)C(=O)N1 (centres unmarked) [Compound 99]	0.398 µM
O=C1CCC(c2ccc(F)cc2)(C2CCN(Cc3ccc(Cl)s3)CC2)C(=O)N1 (centres unmarked) [Compound 153]	1.26 µM
CSc1ccc(CN2CCC(C3(c4ccccc4)CCC(=O)NC3=O)CC2)cc1 (centres unmarked) [Compound 116]	5.01 µM
COC(=O)CCN1C(=O)CCC(c2ccccc2)(C2CCN(Cc3ccc(C(F)(F)F)cc3)CC2)C1=O (centres unmarked) [Compound 132]	0.631 µM
O=C1CCC(c2ccc(F)cc2)(C2CCN(Cc3ccc(Cl)cc3Cl)CC2)CN1 (centres unmarked) [Compound 138]	1.58 µM
O=C1CCC(c2cccc(C(F)(F)F)c2)(C2CCN(Cc3ccc(Br)cc3)CC2)C(=O)N1 (centres unmarked) [Compound 90]	1.58 µM
O=C1CCC(c2cccnc2)(C2CCN(Cc3cc4cc(Br)ccc4o3)CC2)C(=O)N1 (centres unmarked) [Compound 184]	1.58 µM
COc1ccc(C2(C3CCN(Cc4ccc(Br)cc4)CC3)CCC(=O)NC2=O)cc1 (centres unmarked) [Compound 93]	3.98 µM
O=C1CCC(c2ccccc2)(C2CCN(Cc3ccc(Cl)cc3)CC2)CN1 (centres unmarked) [Compound 135]	1 µM
CC(c1ccc(Br)cc1)N1CCC(C2(c3ccccc3)CCC(=O)NC2=O)CC1 (centres unmarked) [Compound 1]	0.398 µM
O=C1CCC(c2ccccc2)(C2CCN(Cc3ccc(Cl)cc3)CC2)C(=O)N1Cc1ccc(Cl)cc1 (centres unmarked) [Compound 189]	2 µM
O=C1CCC(c2ccccc2)(C2CCN(Cc3ccc(OCc4ccccc4)cc3)CC2)C(=O)N1 (centres unmarked) [Compound 119]	6.31 µM
O=C1CCC(c2ccccc2)(C2CCN(Cc3ccc(Cl)cc3)CC2)C(=O)N1 (centres unmarked) [Compound 62]	0.794 µM
O=C1CCC(c2ccc(F)cc2F)(C2CCN(Cc3ccc(Cl)c(Cl)c3)CC2)C(=O)N1 (centres unmarked) [Compound 201]	0.398 µM
O=C1CCC(c2ccc(F)cc2)(C2CCN(Cc3ccc(Br)cc3F)CC2)C(=O)N1 (centres unmarked) [Compound 98]	0.631 µM
O=C1CCC(c2ccc(F)cc2)(C2CCN(Cc3ccc(Cl)c(Cl)c3)CC2)CN1 (centres unmarked) [Compound 141]	1.58 µM
COc1ccc(CN2CCC(C3(c4ccccc4)CCC(=O)NC3=O)CC2)cc1 (centres unmarked) [Compound 107]	3.98 µM
O=C1CCC(c2ccc(F)cc2F)(C2CCN(Cc3ccc(Br)cc3)CC2)C(=O)N1 (single isomer, unassigned) [Compound 166]	0.0631 µM
O=C1CCC(c2ccncc2)(C2CCN(Cc3ccc(-c4ccccc4)cc3)CC2)C(=O)N1 (centres unmarked) [Compound 174]	5.01 µM

Same assay, conditions: pIC50, -log IC50 (molar) inhibiting 50% of specific I-TAC-induced GTPγS-binding; membranes of human CXCR3-transfected CHO cells

Structure (SMILES)	IC50
O=C1CCC(c2ccccc2)(C2CCN(Cc3ccc(Br)cc3)CC2)C(=O)N1 (centres unmarked) [Compound 88]	1.26 µM
COc1cccc(C2(C3CCN(Cc4ccc(Br)cc4)CC3)CCC(=O)NC2=O)c1 (centres unmarked) [Compound 8]	1.58 µM

Same assay, conditions: read-out: pIC50 (converted)

Structure (SMILES)	IC50
Cc1cccc(C2(C3CCN(Cc4ccc(Br)cc4)CC3)CCC(=O)NC2=O)c1 (centres unmarked) [Compound 9]	2 µM
